In ChEMBL document CHEMBL1909046, “DrugMatrix in vitro pharmacology data”:

Columns and labels:
[1] = target: 5-hydroxytryptamine receptor 4 (Cavia porcellus, UniProt O70528); format: cell membranes, Dunkin-Hartley, Striatum, Membrane; further: in other assays of this panel Not Active means under 50% inhibition at 10 µM
[2] = target: T1, Receptor-type tyrosine-protein phosphatase C (Homo sapiens, UniProt P08575); parameters: species or system Escherichia coli;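 further: inhibition of CD45 enzyme activity measured using DiFMUP as substrate; in other assays of this panel Not Active means under 50% inhibition at 10 µM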
T1 sequence (P08575 whole entry): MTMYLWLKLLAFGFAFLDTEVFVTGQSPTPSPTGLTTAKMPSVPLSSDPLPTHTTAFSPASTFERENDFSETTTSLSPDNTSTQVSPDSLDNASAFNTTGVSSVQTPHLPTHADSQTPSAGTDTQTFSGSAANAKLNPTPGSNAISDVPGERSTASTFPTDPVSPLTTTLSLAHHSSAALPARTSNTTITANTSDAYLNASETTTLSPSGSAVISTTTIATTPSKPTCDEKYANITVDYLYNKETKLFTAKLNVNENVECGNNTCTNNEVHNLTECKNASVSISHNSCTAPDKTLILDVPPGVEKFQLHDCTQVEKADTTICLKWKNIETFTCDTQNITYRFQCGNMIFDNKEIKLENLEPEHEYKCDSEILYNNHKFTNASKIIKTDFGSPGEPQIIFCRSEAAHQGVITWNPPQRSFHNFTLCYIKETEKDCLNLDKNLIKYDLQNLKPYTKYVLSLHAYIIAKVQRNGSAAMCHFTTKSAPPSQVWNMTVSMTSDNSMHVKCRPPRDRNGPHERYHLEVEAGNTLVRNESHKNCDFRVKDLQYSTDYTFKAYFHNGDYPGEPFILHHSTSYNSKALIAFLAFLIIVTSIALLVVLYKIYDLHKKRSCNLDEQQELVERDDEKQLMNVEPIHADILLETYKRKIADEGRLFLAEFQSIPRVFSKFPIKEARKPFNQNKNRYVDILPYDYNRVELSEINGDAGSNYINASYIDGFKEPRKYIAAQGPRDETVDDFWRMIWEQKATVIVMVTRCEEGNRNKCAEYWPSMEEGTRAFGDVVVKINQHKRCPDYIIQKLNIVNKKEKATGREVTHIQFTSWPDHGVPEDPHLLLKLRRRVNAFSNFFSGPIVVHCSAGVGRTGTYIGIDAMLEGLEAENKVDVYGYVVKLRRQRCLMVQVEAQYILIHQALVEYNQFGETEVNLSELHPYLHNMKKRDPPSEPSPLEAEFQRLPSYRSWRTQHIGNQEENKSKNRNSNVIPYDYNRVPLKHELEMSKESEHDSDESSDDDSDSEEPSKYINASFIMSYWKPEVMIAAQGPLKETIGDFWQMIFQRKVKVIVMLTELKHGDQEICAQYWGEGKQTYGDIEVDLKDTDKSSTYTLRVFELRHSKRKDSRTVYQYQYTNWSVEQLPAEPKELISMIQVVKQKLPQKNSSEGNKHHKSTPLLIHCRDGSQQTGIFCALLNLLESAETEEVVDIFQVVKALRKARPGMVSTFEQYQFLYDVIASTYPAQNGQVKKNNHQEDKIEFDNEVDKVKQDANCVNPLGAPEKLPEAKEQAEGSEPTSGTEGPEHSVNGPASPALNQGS

Adenosine receptor A1 = target: T2, Adenosine receptor A1 (Homo sapiens, UniProt P30542); format: cell membranes, CHO, Membrane; conditions: cho;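 further: radioligand binding assay at the adenosine A1 receptor, with DPCPX serving as the labelled ligand; in other assays of this panel Not Active means under 50% inhibition at 10 µM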
T2 sequence (P30542 whole entry): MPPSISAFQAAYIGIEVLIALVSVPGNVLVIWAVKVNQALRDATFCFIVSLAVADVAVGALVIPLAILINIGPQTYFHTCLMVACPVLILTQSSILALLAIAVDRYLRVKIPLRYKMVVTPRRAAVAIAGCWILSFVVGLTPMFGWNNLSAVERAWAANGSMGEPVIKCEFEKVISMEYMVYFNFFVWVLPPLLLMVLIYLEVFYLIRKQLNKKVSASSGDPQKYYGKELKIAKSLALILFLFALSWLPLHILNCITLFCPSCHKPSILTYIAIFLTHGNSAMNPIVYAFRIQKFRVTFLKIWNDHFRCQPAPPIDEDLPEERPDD

[3] = target: Sigma non-opioid intracellular receptor 1 (Homo sapiens, UniProt Q99720); assay: DRUGMATRIX: Sigma1 radioligand binding (ligand: [3H] Haloperidol); format: cell membranes, Jurkat, Membrane; conditions: Not Active = under 50% inhibition at 10 µM
Melanocortin receptor 5 = Melanocortin receptor 5 (Homo sapiens, UniProt P33032); format: cell membranes, HEK293, Membrane; conditions: hek293; further: in other assays of this panel Not Active means under 50% inhibition at 10 µM
[4] = target: Mitogen-activated protein kinase 3 (Homo sapiens, UniProt P27361); assay: DRUGMATRIX: Protein Serine/Threonine Kinase, ERK1 enzyme inhibition (substrate: Myelin Basic Protein); parameters: species or system Escherichia coli; conditions: Not Active = under 50% inhibition at 10 µM
[5] = target: Mitogen-activated protein kinase 1 (Homo sapiens, UniProt P28482); assay: DRUGMATRIX: Protein Serine/Threonine Kinase, ERK2 enzyme inhibition (substrate: Myelin Basic Protein); parameters: species or system Escherichia coli; conditions: Not Active = under 50% inhibition at 10 µM
Progesterone receptor = target: T3, Progesterone receptor (Bos taurus, UniProt Q690N0); assay: DRUGMATRIX: Progesterone radioligand binding (ligand: [3H] R-5020); format: tissue-based, Uterus; conditions: Not Active = under 50% inhibition at 10 µM
T3 sequence (Q690N0 whole entry): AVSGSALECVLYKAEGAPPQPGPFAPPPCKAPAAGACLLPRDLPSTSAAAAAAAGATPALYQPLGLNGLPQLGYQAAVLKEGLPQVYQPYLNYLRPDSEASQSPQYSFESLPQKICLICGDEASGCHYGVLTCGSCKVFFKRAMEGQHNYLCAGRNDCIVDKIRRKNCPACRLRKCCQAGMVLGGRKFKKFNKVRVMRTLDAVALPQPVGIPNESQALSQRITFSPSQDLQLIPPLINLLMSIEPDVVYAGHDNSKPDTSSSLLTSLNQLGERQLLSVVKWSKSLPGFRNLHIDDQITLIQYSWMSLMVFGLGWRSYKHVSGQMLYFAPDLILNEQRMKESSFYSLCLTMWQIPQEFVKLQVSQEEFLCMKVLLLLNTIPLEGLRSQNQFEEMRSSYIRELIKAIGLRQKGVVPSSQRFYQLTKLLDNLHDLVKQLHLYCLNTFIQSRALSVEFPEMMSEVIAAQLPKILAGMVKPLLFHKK

[6] = target: T4, Cysteinyl leukotriene receptor 1 (Homo sapiens, UniProt Q9Y271); format: cell membranes, CHO-K1, Membrane; conditions: cho-k1; further: in other assays of this panel Not Active means under 50% inhibition at 10 µM
T4 sequence (Q9Y271 whole entry): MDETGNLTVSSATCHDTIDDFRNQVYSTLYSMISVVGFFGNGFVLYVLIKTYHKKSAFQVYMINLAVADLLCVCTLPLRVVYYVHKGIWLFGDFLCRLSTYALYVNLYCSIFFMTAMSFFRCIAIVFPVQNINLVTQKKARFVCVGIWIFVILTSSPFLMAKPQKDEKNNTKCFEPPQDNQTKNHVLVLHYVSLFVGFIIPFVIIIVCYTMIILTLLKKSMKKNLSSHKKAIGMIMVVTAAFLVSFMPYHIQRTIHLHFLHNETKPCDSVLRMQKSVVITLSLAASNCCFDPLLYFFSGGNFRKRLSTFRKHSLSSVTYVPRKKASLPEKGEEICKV

Chain of 5-hydroxytryptamine receptor 4 (O70528 whole entry): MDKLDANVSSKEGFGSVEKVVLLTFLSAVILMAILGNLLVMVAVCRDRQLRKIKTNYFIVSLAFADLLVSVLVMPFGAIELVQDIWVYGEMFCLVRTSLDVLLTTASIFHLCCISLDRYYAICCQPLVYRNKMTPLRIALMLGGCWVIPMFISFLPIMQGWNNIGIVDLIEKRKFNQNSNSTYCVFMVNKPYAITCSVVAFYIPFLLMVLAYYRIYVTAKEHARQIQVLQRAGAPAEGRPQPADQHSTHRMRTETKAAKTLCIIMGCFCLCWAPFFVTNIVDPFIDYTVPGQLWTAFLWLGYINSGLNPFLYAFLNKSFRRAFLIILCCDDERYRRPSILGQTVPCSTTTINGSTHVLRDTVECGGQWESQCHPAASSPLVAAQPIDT
Chain of Sigma non-opioid intracellular receptor 1 (Q99720 whole entry): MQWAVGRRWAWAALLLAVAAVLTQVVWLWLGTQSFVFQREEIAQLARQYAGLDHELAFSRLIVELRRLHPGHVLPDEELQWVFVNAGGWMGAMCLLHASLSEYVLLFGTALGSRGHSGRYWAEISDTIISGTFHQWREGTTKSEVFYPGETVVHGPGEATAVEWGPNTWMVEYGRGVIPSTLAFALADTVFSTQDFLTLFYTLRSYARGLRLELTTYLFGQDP
Chain of Melanocortin receptor 5 (P33032 whole entry): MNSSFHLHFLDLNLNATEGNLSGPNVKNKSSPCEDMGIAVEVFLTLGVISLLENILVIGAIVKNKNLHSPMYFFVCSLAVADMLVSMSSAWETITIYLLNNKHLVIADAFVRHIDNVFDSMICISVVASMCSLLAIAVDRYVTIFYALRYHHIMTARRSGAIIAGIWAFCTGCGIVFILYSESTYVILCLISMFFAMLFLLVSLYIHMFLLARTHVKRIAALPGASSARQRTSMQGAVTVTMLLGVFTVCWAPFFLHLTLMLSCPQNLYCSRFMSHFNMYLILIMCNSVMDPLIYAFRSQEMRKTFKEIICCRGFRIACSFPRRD
Chain of Mitogen-activated protein kinase 1 (P28482 whole entry): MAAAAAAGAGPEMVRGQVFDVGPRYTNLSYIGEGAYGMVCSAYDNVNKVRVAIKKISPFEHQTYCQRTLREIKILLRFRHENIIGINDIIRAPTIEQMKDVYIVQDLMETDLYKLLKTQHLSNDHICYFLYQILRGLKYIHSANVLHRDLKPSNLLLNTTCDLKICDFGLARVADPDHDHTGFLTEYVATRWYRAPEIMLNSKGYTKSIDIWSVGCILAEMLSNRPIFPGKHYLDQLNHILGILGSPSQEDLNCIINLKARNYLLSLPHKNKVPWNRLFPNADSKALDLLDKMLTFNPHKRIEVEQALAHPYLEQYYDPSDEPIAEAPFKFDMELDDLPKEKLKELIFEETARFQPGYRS
Chain of Mitogen-activated protein kinase 3 (P27361 whole entry): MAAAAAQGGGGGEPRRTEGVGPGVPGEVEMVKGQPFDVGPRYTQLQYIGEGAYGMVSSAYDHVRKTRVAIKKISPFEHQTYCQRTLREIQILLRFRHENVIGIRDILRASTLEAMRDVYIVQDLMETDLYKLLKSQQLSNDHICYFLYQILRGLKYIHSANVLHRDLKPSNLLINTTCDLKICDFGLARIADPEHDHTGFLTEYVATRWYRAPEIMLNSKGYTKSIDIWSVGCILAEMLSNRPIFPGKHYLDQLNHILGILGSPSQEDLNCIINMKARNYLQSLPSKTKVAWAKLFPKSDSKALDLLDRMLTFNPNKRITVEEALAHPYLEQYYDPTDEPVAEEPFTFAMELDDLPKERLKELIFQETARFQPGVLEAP

NNC(=O)c1ccncc1 [ISONIAZID]
IC50 [1]: Not Active
IC50 [2]: Not Active
IC50 (Adenosine receptor A1): Not Active
IC50 ([3]; jurkat): Not Active
IC50 (Melanocortin receptor 5): Not Active
IC50 [4]: Not Active
IC50 [5]: Not Active
IC50 (Progesterone receptor): Not Active
IC50 [6]: Not Active

CC1=C(/C=C/C(C)=C/C=C/C(C)=C\C(=O)O)C(C)(C)CCC1 [ISOTRETINOIN]
IC50 [1]: Not Active
IC50 [2]: Not Active
IC50 (Adenosine receptor A1): Not Active
IC50 ([3]; jurkat): Not Active
IC50 (Melanocortin receptor 5): Not Active
IC50 [4]: Not Active
IC50 ([5]; read-out: IC50): 462 nM
IC50 (Progesterone receptor): Not Active
IC50 [6]: Not Active

CO[C@@H]1[C@@H](O[C@@H]2O[C@H](C)[C@@H](O[C@H]3C[C@@](C)(O)[C@@H](OC(=O)CC(C)C)[C@H](C)O3)[C@H](N(C)C)[C@H]2O)[C@@H](CC=O)C[C@@H](C)[C@@H](O)/C=C/C=C/C[C@@H](C)OC(=O)C[C@H]1O [KITASAMYCIN]
IC50 [1]: Not Active
IC50 [2]: Not Active
IC50 (Adenosine receptor A1): Not Active
IC50 ([3]; jurkat): Not Active
IC50 (Melanocortin receptor 5): Not Active
IC50 [4]: Not Active
IC50 [5]: Not Active
IC50 (Progesterone receptor): Not Active
IC50 [6]: Not Active

CC(CCc1ccccc1)NCC(O)c1ccc(O)c(C(N)=O)c1 (stereo unspecified) [LABETALOL]
IC50 [1]: Not Active
IC50 [2]: Not Active
IC50 (Adenosine receptor A1): Not Active
IC50 ([3]; read-out: IC50): 1810 nM
Ki ([3]; read-out: Ki): 763 nM
IC50 (Melanocortin receptor 5): Not Active
IC50 [4]: Not Active
IC50 [5]: Not Active
IC50 (Progesterone receptor): Not Active
IC50 [6]: Not Active

Nc1nnc(-c2cccc(Cl)c2Cl)c(N)n1 [LAMOTRIGINE]
IC50 [1]: Not Active
IC50 [2]: Not Active
IC50 (Adenosine receptor A1): Not Active
IC50 ([3]; jurkat): Not Active
IC50 (Melanocortin receptor 5): Not Active
IC50 [4]: Not Active
IC50 [5]: Not Active
IC50 (Progesterone receptor): Not Active
IC50 [6]: Not Active

NCCCC[C@H](N[C@@H](CCc1ccccc1)C(=O)O)C(=O)N1CCC[C@H]1C(=O)O [LISINOPRIL ANHYDROUS]
IC50 [1]: Not Active
IC50 [2]: Not Active
IC50 (Adenosine receptor A1): Not Active
IC50 ([3]; jurkat): Not Active
IC50 (Melanocortin receptor 5): Not Active
IC50 [4]: Not Active
IC50 [5]: Not Active
IC50 (Progesterone receptor): Not Active
IC50 [6]: Not Active

COC(=O)c1ccc(O)cc1 [METHYLPARABEN]
IC50 [1]: Not Active
IC50 [2]: Not Active
IC50 (Adenosine receptor A1): Not Active
IC50 ([3]; jurkat): Not Active
IC50 (Melanocortin receptor 5): Not Active
IC50 [4]: Not Active
IC50 [5]: Not Active
IC50 (Progesterone receptor): Not Active
IC50 [6]: Not Active

C[C@](N)(Cc1ccc(O)cc1)C(=O)O [METYROSINE]
IC50 [1]: Not Active
IC50 [2]: Not Active
IC50 (Adenosine receptor A1): Not Active
IC50 ([3]; jurkat): Not Active
IC50 (Melanocortin receptor 5): Not Active
IC50 [4]: Not Active
IC50 [5]: Not Active
IC50 (Progesterone receptor): Not Active
IC50 [6]: Not Active

CN1CCN2c3ccccc3Cc3ccccc3C2C1 (stereo unspecified) [MIANSERIN]
IC50 [1]: Not Active
IC50 [2]: Not Active
IC50 (Adenosine receptor A1): Not Active
IC50 ([3]; jurkat): Not Active
IC50 (Melanocortin receptor 5): Not Active
IC50 [4]: Not Active
IC50 [5]: Not Active
IC50 (Progesterone receptor): Not Active
IC50 [6]: Not Active

Clc1ccc(C(c2ccccc2Cl)C(Cl)Cl)cc1 (stereo unspecified) [MITOTANE]
IC50 [1]: Not Active
IC50 [2]: Not Active
IC50 (Adenosine receptor A1): Not Active
IC50 ([3]; jurkat): Not Active
IC50 (Melanocortin receptor 5): Not Active
IC50 [4]: Not Active
IC50 [5]: Not Active
IC50 (Progesterone receptor): Not Active
IC50 [6]: Not Active
